These results are taken from patent publication EP0722725A1, “VASCULAR SMOOTH MUSCLE CELL MIGRATION INHIBITOR” (TEIJIN LIMITED, priority 1994, dated 1996).

A short description of one series: Acute toxicity. The conditions noted are these: no method, species or dose given. The format is in vivo.
Series [1] deals with vascular smooth muscle cell derived from a human normal aorta. Kind of series: Measurement of the inhibition activity on cell migration (PDGF-mediated, Transwell Chamber). The format is cell-based. The conditions noted are these: concentration of 10^-7M; migration mediated by human PDGF 10 ng/ml, 6 hours; compared with the cell migration counts where no test compound was added; read-out: inhibition activities on cell migration.
Method: A Transwell Chamber (Costar Co., registered trademark) was used to measure the inhibitory activity. The chamber is divided into a lower and a upper chamber with an 8-µm pore size membrane filter (PVP-free polycarbonate filter, Nucleopore Co., registered trademark), and the filter was pretreated on its lower surface with 5 µg of rat tail collagen type 1 (Becton Dickinson Co.). To the upper chamber was added 100 µl of a 1.5 x 10^6/ml suspension of cells in a mixed solution of DMEM (supplied by Flow Laboratories Co.) and 0.1% BSA (supplied by Nakarai Tesque Co.), and a solution of human PDGF (supplied by Becton Dickinson Co.), which is prepared by diluting with the same mixed solution to giving the final concentration of 10 ng/ml, is filled in the lower chamber (600 µl). […] After the chamber was allowed to stand under 5%-CO2 atmosphere at 37°C For 6 hours, the filter was taken out. […] After cells adhered on the upper surface of the filter were removed with a cotton swab, the cells migrated to the lower surface were counted under a high-magnifying-power microscope (x200, x400) in terms of cell nuclei. Usually, five fields were counted per filter. Cell migration was expressed by the average cell count of the five fields ± the standard deviation. The significant difference was examined by Student's two-tailed t-test.

The structures appear in SMILES notation.

On to `CCCC[C@H](C)C[C@H](O)/C=C/[C@@H]1[C@H]2CC(CCc3ccc(C(=O)OC)cc3)=C[C@H]2C[C@H]1O` [compound 5e], for which, in “Acute toxicity”, the acute toxicity result is “neither of the compounds 5e and 6b had problem with acute toxicity”. Further, the inhibition at 0.1 µM in series [1] was 13.9%.
